For assay [1], the target named is T1, human Cereblon WT GST-tagged protein (CRBN) (Homo sapiens, UniProt Q96SW2).
T1 construct: purchased CISBIO 64BDCRBNPEH
The experiment in a line: CRBN binding by HTRF (Cereblon binding kit). Conditions: for inhibition at 0.5 µM: read-out: Inhibition Rate at 0.5 μM (%); for inhibition at 2 µM: read-out: Inhibition Rate at 2 μM (%). The procedure:
The CEREBLON BINDING kits (specification: 10,000 tests; product number: Catalog #64BDCRBNPEH; CISBIO company) was used to determine the CRBN binding ability of the compounds to be tested through a HTRF method (homogeneous time-resolved fluorescence). The specific methods are as follows: • 1. According to the instructions of the CEREBLON BINDING KITS, serial dilutions were performed for the test compounds of the present disclosure (including the compounds in Table 1, Table 2, and Examples 1-468) and for lenalidomide. Specifically, diluent #9 (1×) solution was used as the diluent, and multiple concentration gradients were set. The dilution operation can be performed according to one of the following two methods: • (1) The first dilution method: The test compounds of the present disclosure (including the compounds in Table 1, Table 2, and Examples 1-468) were subjected to 5-fold serial dilutions starting from a highest concentration of 40 μM, resulting in a total of 7 concentrations from high to low (40, 8, 1.6, 0.32, 0.064, 0.0128, 0.00256 μM). Subsequently, the diluted test compounds and corresponding detection reagents were added to each well of a 96-well plate, resulting in final test compound concentrations of 10, 2, 0.4, 0.08, 0.016, 0.0032, and 0.00064 μM, respectively. • (2) As an alternative, a second dilution method can be used: The test compounds of the present disclosure (including the compounds in Table 1, Table 2, and Examples 1-468) were subjected to 4-fold gradient dilutions starting from a highest concentration of 8 μM, resulting in 2 concentrations (8 μM, 2 μM). Into the 96-well plate, the diluted test compounds and corresponding detection reagents were added, resulting in final test compound concentrations of 2 μM and 0.5 μM, respectively. The experimental procedure is described below using the diluted 8 μM test compound and lenalidomide solutions as examples. • 2. 2.5 μL of the above 8 μM of the tested compounds and lenalidomide solution, as well as the same volume of diluent #9 (1×) solution (solvent control group, Std0) were added to each well of a 96-well plate, respectively. Then, 2.5 μL of human Cereblon WT GST-tagged protein solution was added to each well. Finally, 5 μL of the thoroughly mixed Thalidomide-Re reagent and GST Eu antibody working solution were added to each of the aforementioned wells. The final concentration of the tested compounds and lenalidomide in each well was 2 μM. • 3. The blank control wells were sequentially added with 2.5 μL of diluent #9 (1×) solution, 2.5 μL of PROTAC binding buffer, and 5 μL of thoroughly mixed Thalidomide-Re reagent and GST Eu antibody working solution. • 4. After sealing and incubating the solutions in the aforementioned wells at room temperature for 3 hours, the absorbance values at emission wavelengths of 620 nm and 665 nm were detected by the HTRF method using a Spark microplate reader (V3.1 SP1).
The corresponding CRBN binding inhibition rate was calculated using the following method:
Rcompound=OD 665 nmcompound/OD 620 nmcompound−OD 665 nmcontrol/OD 620 nmcontrol
RStd0=OD 665 nmStd0/OD 620 nmStd0−OD 665 nmcontrol/OD 620 nmcontrol inhibition rate (%)=(1−Rcompound/RStd0)*100
Note: OD 665 nmcompound is the absorbance value of each well of the compounds to be tested of the present disclosure at an emission wavelength of 665 nm. OD 620 nmcompound is the absorbance value of each well of the compounds to be tested of the present disclosure at an emission wavelength of 620 nm. OD 665 nmcontrol is the absorbance value of the blank control well at an emission wavelength of 665 nm. OD 620 nmcontrol is the absorbance value of the blank control well at an emission wavelength of 620 nm. OD 665 nmStd0 is the absorbance value of the solvent control well at an emission wavelength of 665 nm. OD 620 nmStd0 is the absorbance value of the solvent control well at an emission wavelength of 620 nm.
A general note: Time-resolved FRET reads energy transfer from a long-lived donor to a nearby acceptor.

In another assay the target is T2, IRAK4 (Homo sapiens, UniProt Q9NWZ3).
T2 construct: expression of target proteins in cells; endogenous in cells
T2 sequence (Q9NWZ3 1-460): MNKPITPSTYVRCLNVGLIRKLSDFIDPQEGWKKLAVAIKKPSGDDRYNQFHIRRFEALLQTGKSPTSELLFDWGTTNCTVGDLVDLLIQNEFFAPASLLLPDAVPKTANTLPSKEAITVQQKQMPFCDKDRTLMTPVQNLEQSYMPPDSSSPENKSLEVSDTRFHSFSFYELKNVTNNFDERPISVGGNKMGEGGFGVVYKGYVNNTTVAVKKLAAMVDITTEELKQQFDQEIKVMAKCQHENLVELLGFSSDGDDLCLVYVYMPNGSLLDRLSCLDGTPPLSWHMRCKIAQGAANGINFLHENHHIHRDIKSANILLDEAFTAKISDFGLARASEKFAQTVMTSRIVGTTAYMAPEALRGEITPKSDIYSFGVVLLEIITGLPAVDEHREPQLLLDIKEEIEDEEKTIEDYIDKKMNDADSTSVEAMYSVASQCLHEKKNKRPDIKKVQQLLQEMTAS
Briefly: Western blot degradation of IRAK4. Conditions: hPBMC Cell; 24 hours. In kind it is cell-based. The method in brief: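 Compound-treated cells harvested; lysates denatured 5 min at 95 °C, run on SDS-PAGE, blotted to NC membrane, blocked 1 h RT, probed with antibodies. Densitometry vs DMSO → DC50; target normalised to internal control → % remaining, degradation = 1 − remaining.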
Background: A western blot detects proteins with antibodies after separation by electrophoresis.

For assay [2], the system named is Human Multiple myeloma cell line (MM.1S). The experiment in a line: Inhibition of MM.1S cell proliferation (CellTiter luminescent viability). In kind it is cell-based. Conditions: Homo sapiens, MM1.S, Table IG1, FAK inhibitor-based, 96 hours. The procedure, abridged:
(§1)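 IC50 is fitted from luminescent viability (CellTiter-Meiluncell) curves. Nine-point, 5-fold dilution series (top stock 2000 μM) are added at 0.5 μL per 100 μL medium to cells plated the day before, with growth at 37 °C and 5% CO2.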

The subject of assay [3] is Human myeloid monocytic leukemia cell line (MV-4-11). The experiment in a line: Inhibition of MV-4-11 cell proliferation (CellTiter luminescent viability). Conditions: Homo sapiens, MV4-11, Table IG2, FAK inhibitor-based, 96 hours. In kind it is cell-based. The method in brief: as §1

What is called inhibition is the percentage by which the read-out fell short of the control.

T1 sequence (Q96SW2 whole entry): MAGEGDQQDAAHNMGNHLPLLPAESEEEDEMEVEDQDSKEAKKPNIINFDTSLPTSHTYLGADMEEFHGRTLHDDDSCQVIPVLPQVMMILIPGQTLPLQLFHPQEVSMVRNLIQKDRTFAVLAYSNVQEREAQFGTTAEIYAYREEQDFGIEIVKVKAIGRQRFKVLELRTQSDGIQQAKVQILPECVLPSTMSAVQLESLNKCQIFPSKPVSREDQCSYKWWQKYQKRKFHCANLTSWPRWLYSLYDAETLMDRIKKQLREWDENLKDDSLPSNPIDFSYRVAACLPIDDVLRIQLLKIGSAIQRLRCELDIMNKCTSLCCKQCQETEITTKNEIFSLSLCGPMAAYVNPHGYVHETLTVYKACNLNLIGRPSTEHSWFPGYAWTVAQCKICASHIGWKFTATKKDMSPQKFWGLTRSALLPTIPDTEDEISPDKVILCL

Consider `O=C1CCN(N2C(=O)c3ccc(N4CC5CCC4CN5C[C@H]4CC[C@H](n5cc(NC(=O)c6cnn7ccc(N8C[C@H]9C[C@@H]8CO9)nc67)c(C(F)F)n5)CC4)cc3C2=O)C(=O)N1` [GT-05833, 5-((1R,4R)-2-oxa-5-azabicyclo[2.2.1]heptan-5-yl)-N-(3-(difluoromethyl)-1-((1r,4R)-4-((5-(2-(2,4-dioxotetrahydropyrimidin-1(2H)-yl)-1,3-dioxoisoindolin-5-yl)-2,5-diazabicyclo[2.2.2]octan-2-yl)methyl)cyclohexyl)-1H-pyrazol-4-yl)pyrazolo[1,5-a]pyrimidine-3-carboxamide], for which, in assay [1], the inhibition at 0.5 µM was 40 to 53% and the inhibition at 2 µM lay in the range of 60 to 80%. For the same molecule, the “Degradation of substrate protein IRAK4 (substrate protein remaining %)” value at IRAK4 is reported as “A (0%≤substrate protein remaining %≤80%)”.
As to `CNC(=O)c1ccccc1Nc1cc(Nc2ccc(N3CCN(Cc4ccc5c(c4)CN(N4CCC(=O)NC4=O)C5=O)CC3)cc2OC)ncc1C(F)(F)F` [GT-07660, 2-((2-((4-(4-((2-(2,4-dioxotetrahydropyrimidin-1(2H)-yl)-1-oxoisoindolin-5-yl)methyl)piperazin-1-yl)-2-methoxyphenyl)amino)-5-(trifluoromethyl)pyridin-4-yl)amino)-N-methylbenzamide], the inhibition at 0.5 µM in assay [1] lay in the range of 30 to 40%; in assay [2] (500 nM, read-out: Inhibition Rate at 500 nM (%)), 60 to 80%; in assay [3] (MV-4-11, 500 nM, read-out: Inhibition Rate at 500 nM (%)), 80 to 100%. In assay [1], the inhibition at 2 µM was 60 to 80%. The inhibition at 0.01 µM in assay [2] (10 nM, read-out: Inhibition Rate at 10 nM (%)) lay in the range of 15 to 20%; in assay [3] (MV-4-11, 10 nM, read-out: Inhibition Rate at 10 nM (%)), 50 to 60%.
As to `Cc1cc(-c2ccc3c4cnccc4n(C)c3c2)cnc1N1CCN(Cc2ccc3c(c2)CN(N2CCC(=O)NC2=O)C3=O)CC1` [GT-08540, 1-(5-((4-(3-methyl-5-(5-methyl-5H-pyrido[4,3-b]indol-7-yl)pyridin-2-yl)piperazin-1-yl)methyl)-1-oxoisoindolin-2-yl)dihydropyrimidine-2,4 (1H,3H)-dione], in assay [1], the inhibition at 0.5 µM is 10 to 20% and the inhibition at 2 µM lay in the range of 53 to 60%.
In the case of `Cn1c2ccncc2c2ccc(-c3cnc(N4CCN(Cc5ccc6c(c5)CN(N5CCC(=O)NC5=O)C6=O)CC4)c(Cl)c3)cc21` [GT-08541, 1-(5-((4-(3-chloro-5-(5-methyl-5H-pyrido[4,3-b]indol-7-yl)pyridin-2-yl)piperazin-1-yl)methyl)-1-oxoisoindolin-2-yl)dihydropyrimidine-2,4 (1H,3H)-dione], in assay [1], the inhibition at 0.5 µM fell in the range of 30 to 40% and the inhibition at 2 µM was in the range of 60 to 80%.
The corresponding values for `O=C1CCN(N2Cc3cc(CN4CCN(c5ccn6c(n5)nc5ccccc56)CC4)ccc3C2=O)C(=O)N1` [GT-08565, 1-(5-((4-(benzo[4,5]imidazo[1,2-a]pyrimidin-2-yl)piperazin-1-yl)methyl)-1-oxoisoindolin-2-yl)dihydropyrimidine-2,4 (1H,3H)-dione] are 10 to 20% and 60 to 80%.
`Cn1ncc(Cl)c1-c1cc(C(=O)N[C@H](CNCC2CCN(c3cccc4c3C(=O)N(N3CCC(=O)NC3=O)C4=O)CC2)Cc2cccc(F)c2)sc1Cl` [GT-08587, (S)-5-chloro-4-(4-chloro-1-methyl-1H-pyrazol-5-yl)-N-(1-(((1-(2-(2,4-dioxotetrahydropyrimidin-1(2H)-yl)-1,3-dioxoisoindolin-4-yl)piperidin-4-yl)methyl)amino)-3-(3-fluorophenyl)propan-2-yl)thiophene-2-carboxamide]: in assay [1], the inhibition at 0.5 µM lay within 10 to 20% and the inhibition at 2 µM fell in the range of 53 to 60%.
The corresponding values for `O=C1CCN(N2C(=O)c3ccc(N4CC5CCC4CN5CC4CCN(c5ccn6c(n5)nc5ccccc56)CC4)cc3C2=O)C(=O)N1` (stereo not shown) [GT-08828, 5-(5-((1-(benzo[4,5]imidazo[1,2-a]pyrimidin-2-yl)piperidin-4-yl)methyl)-2,5-diazabicyclo[2.2.2]octan-2-yl)-2-(2,4-dioxotetrahydropyrimidin-1(2H)-yl)isoindoline-1,3-dione] are 20 to 30% and 53 to 60%.

The record behind these values is patent US20260364184A1, “COMPOUND BASED ON OXOISOINDOLINYL-SUBSTITUTED TETRAHYDROPYRIMIDINE-DIONE AND USE THEREOF” (GLUETACS THERAPEUTICS (SHANGHAI) CO., LTD., priority 2023, published 2026).
